From the supplement of paper PMC10307832

Assays:
Assay in all cases: relative viability (nuclei count vs DMSO), 5 days (fraction); higher = more cells survive
AZ628 + Linsitinib = compound: CC1=C(C=C(C=C1)NC(=O)C2=CC(=CC=C2)C(C)(C)C#N)NC3=CC4=C(C=C3)N=CN(C4=O)C [AZ628] + C[C@]1(O)C[C@@H](c2nc(-c3ccc4ccc(-c5ccccc5)nc4c3)c3c(N)nccn32)C1 [Linsitinib] (partner 1 µM)
In short: (§1)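 Five library-drug doses in √10 steps were combined with a fixed anchor-drug dose, or a single drug was given alone, by pin tool to lung cancer cell lines in 1536-well plates the day after seeding. Nuclei were stained and counted after 5 days. Relative viability is the nuclei count in treated wells over that in vehicle wells, taken as the median of duplicate plates.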

[1] = compound: C[As](C)SC[C@H](NC(=O)CC[C@H](N)C(=O)O)C(=O)NCC(=O)O [Darinaparsin] + Nc1ncn([C@H]2C[C@H](O)[C@@H](CO)O2)c(=O)n1 [Decitabine] (partner 2 µM)
In short: as §1

AZ628 + Alpelisib = compound: CC1=C(C=C(C=C1)NC(=O)C2=CC(=CC=C2)C(C)(C)C#N)NC3=CC4=C(C=C3)N=CN(C4=O)C [AZ628] + Cc1nc(NC(=O)N2CCC[C@H]2C(N)=O)sc1-c1ccnc(C(C)(C)C(F)(F)F)c1 [Alpelisib] (partner 2 µM)
In short: as §1

Darinaparsin + AZD7762 = compound: C[As](C)SC[C@H](NC(=O)CC[C@H](N)C(=O)O)C(=O)NCC(=O)O [Darinaparsin] + NC(=O)Nc1cc(-c2cccc(F)c2)sc1C(=O)N[C@H]1CCCNC1 [AZD7762] (partner 0.2 µM)
In short: as §1

LCLC-97TM1
relative viability (AZ628 + Linsitinib; first compound 0.08 µM): 0.212
relative viability (AZ628 + Linsitinib; first compound 0.253 µM): 0.24
relative viability (AZ628 + Linsitinib; first compound 0.8 µM): 0.179
relative viability (AZ628 + Linsitinib; first compound 2.53 µM): 0.202
relative viability (AZ628 + Linsitinib; first compound 8 µM): 0.136
relative viability ([1]; first compound 0.08 µM): 0.246
relative viability ([1]; first compound 0.8 µM): 0.252
relative viability ([1]; first compound 2.53 µM): 0.211
relative viability ([1]; first compound 8 µM): 0.258
relative viability (AZ628 + Alpelisib; first compound 0.08 µM): 0.279
relative viability (AZ628 + Alpelisib; first compound 0.253 µM): 0.205
relative viability (AZ628 + Alpelisib; first compound 0.8 µM): 0.195
relative viability (AZ628 + Alpelisib; first compound 2.53 µM): 0.232
relative viability (AZ628 + Alpelisib; first compound 8 µM): 0.118
relative viability (Darinaparsin + AZD7762; first compound 0.08 µM): 0.128
relative viability (Darinaparsin + AZD7762; first compound 0.8 µM): 0.247
relative viability (Darinaparsin + AZD7762; first compound 2.53 µM): 0.314
relative viability (Darinaparsin + AZD7762; first compound 8 µM): 0.254
